Here are results for 92 compounds from a melting point compilation (Tetko et al.; mined from patent text by program, amines drawn as free bases though some values may be those of a salt).

As usually defined, the melting point is the temperature of the solid-liquid transition.

Compound `CNC(=S)NCCCCc1nc[nH]c1C` showed a melting point of 110 to 112 °C. `C[C@]1(COc2ccc(N3CCC(OCc4ccc(OC(F)(F)F)cc4)CC3)cc2)Cn2cc([N+](=O)[O-])nc2O1` gave a melting point of 214 to 218 °C. In the case of `CC(C)(C)C(O)C(Oc1ccc(Cl)cc1)n1ncnc1S` (configuration not stated) it was 193 to 194 °C; in that of `COC(=O)c1ccc2c(c1C)SCCC2(C)C`, 63 °C; in that of `N#Cc1nn(-c2c(Cl)cc(C(F)(F)F)cc2Cl)c(N)c1-c1ccc2c(c1)OCO2`, 222 °C.

With `O=C(O)Cc1c(C(=O)c2ncc[nH]2)[nH]c2ccc(Cl)cc12`, the melting point was in the range of 253 to 254 °C.

With `CC(C)(NC(=O)c1cc2c(n(CC3CCCCC3)c1=O)CCCCCC2)C(=O)O`, the melting point is 177 to 180 °C. Regarding `O=[N+]([O-])c1ccc(-c2cccs2)c(-c2cccs2)c1`, the melting point is 97 to 101 °C. Compound `O=C(O)c1cccc(-c2nccc(-c3ccc(F)cc3)n2)c1` came in with a melting point of 239 to 241 °C. As to `CC(C)c1cccc(CCCn2ccnc2)c1NC(=O)CC1c2ccccc2Oc2ccccc21`, the melting point is 194 to 195 °C.

In turn, `Cc1coc2c(C(=O)c3cccs3)cc(C(C)(C)C)c(O)c12` registered a melting point of 145 °C. The figure for `CC(=O)Nc1ccc2c(c1)cc(C(=O)c1ccc(C)cc1)n2C` is 211 to 213 °C. `O=S(=O)(c1ccc(Cl)cc1)C(c1cc(F)ccc1F)c1cc(NCCO)ncc1Cl` (configuration not stated) displayed a melting point of 168 to 169 °C. `COc1ccc(C(=O)Nc2ccc(OC)cc2NC(=O)c2ccc(OC)cc2)cc1` yielded a melting point of 238 to 239 °C.

With `CCN(CC)CC1CCCCN1CCCNC(=O)N1c2ccccc2C(=O)Nc2cccnc21` (configuration not stated), the melting point was 160 to 161 °C. `COc1ccc(-c2nc(C(C)=O)oc2-c2ccc(OC)cc2)cc1`: the melting point was 139 to 140 °C. In turn, `N#Cc1ccc(NC(=O)C(=O)N2CCC(Cc3ccccc3)CC2)cc1` returned a melting point of 109 to 112 °C. Take `CCOC(=O)c1cc2c(OCC(O)CNC(C)(C)C)cc(C)cc2[nH]1` (configuration not stated): the melting point lay in the range of 181 to 183 °C.

`CCN(CC)CCc1ccc2cc(N)ccc2n1` came in with a melting point of 93 to 94 °C. Turning to `CNC(=O)[C@H]1O[C@@H](n2cnc3c(NCc4cc(Cl)ccc4OCc4ccccc4)ncnc32)[C@H](O)[C@@H]1N`, the melting point fell in the range of 114 to 115 °C. With `CCCCCCCOc1ccc(C(=O)Cl)cc1OCCCCCCC`, the melting point was in the range of 57 to 58 °C. For `COc1ccc(CNc2c(OCCC(O)c3ccc(Cl)cc3)n[nH]c(=O)c2Br)cc1OC` (configuration not stated), the melting point was in the range of 190 to 196 °C. `COc1ccc(NS(=O)(=O)c2cc(C)cc(C(C)(C)C)c2O)cc1`: the melting point lay in the range of 130 to 134 °C. `Cc1cccc(-c2c(C(N)=O)n(C)c(=O)c3ncccc23)c1` had a melting point above 310 °C. For `CC(=O)N(C)c1nc(C)co1`, the melting point was in the range of 27 to 29 °C. With `CCOC(=O)c1ccc(OCCCCCCc2cc(C)no2)cc1`, the melting point came to 51 °C. In turn, `ON=Cc1ccc(-c2ccc(O)cc2)c2occc12` came in with a melting point of 216 to 217 °C. With `O=C(O)c1ccc(NC(=O)c2ccc(Cl)cc2)cc1`, the melting point was above 260 °C. The compound `O=c1cc(Cl)sn1-c1ccc(Cl)cc1` registered a melting point of 117 to 119 °C. The figure for `Cc1cc(-c2ccc(C(F)(F)F)nc2)cc(-c2cccc(-c3cccc(S(N)(=O)=O)c3)n2)n1` is 233 to 234 °C; for `CC(=O)SC(CC(=O)c1ccccc1)C(=O)O` (configuration not stated) it is 90 °C; for `COc1ccc(C#CC(C)N(O)C(N)=O)cc1Oc1ccc(F)cc1` (configuration not stated) it is 139 to 140 °C. With `CCCC(Cc1ccccc1)c1nc2c([nH]1)c(=O)n(CCC)c(=O)n2CCC` (configuration not stated), the melting point fell in the range of 158 to 160 °C. In turn, `COc1ccc(CNc2nc(N3CCCC3CO)nc(OC)c2C(=O)NCc2ncccn2)cc1Cl` (configuration not stated) registered a melting point of 153 to 154 °C. For `O=C1CC2(CC=CC2)CC(=O)O1`, the melting point is 64 to 65 °C. The figure for `O=[N+]([O-])c1cccc2c(C(F)(F)F)cccc12` is 107 to 108 °C.

As to `O=C1c2ccccc2C(=O)N1CSc1cccnc1`, the melting point fell in the range of 123 to 124 °C.

As to `CCCCC(=O)c1c(O)oc(=O)c(C(=O)CCCC)c1O`, the melting point fell in the range of 84 to 85 °C. The compound `COc1cc(Br)cc(-c2ccc3nonc3c2)c1` returned a melting point of 135 to 137 °C. `Cc1ccsc1C(=O)NCCCSc1ccncc1` showed a melting point of 104 to 105 °C. In turn, `O=C(CO)c1ccc2ccccc2c1` gave a melting point of 114 to 115 °C. `CC1CCC2(C)C(=CCC3C2CCC2(C)C(C(=O)CN)CCC32)C1` (configuration not stated): the melting point came out at 139 °C. As for `OCCCCOc1nc(F)c(Cl)cc1Cl`, the melting point lay in the range of 38 to 39 °C. With `O=C(O)c1cn(C2CC2)c2c(F)c(N3CCC[C@H]3CO)c(F)cc2c1=O`, the melting point is 209 to 210 °C.

In the case of `NC(=O)Nc1nc(CC(=O)Nc2cccc(C(F)(F)F)c2)cs1`, the melting point was in the range of 195 to 197 °C. `CC(CCc1cccc(F)c1)NCC(O)c1ccc(F)c(S(N)(=O)=O)c1` (configuration not stated): the melting point was 65 to 85 °C. In the case of `CC(C)C(c1ccccc1O)N1CCOCC1` (configuration not stated) it was 73 to 77 °C; in that of `Clc1cccc(N2CCN(Cc3ccc(-c4ccccc4)s3)CC2)c1`, 115 °C. `O=C(CCCN1CCNC1=O)N1CCC(C2c3ncc(Br)cc3CCc3cc(Cl)cc(Br)c32)CC1` (single isomer, unassigned; (+)) had a melting point of 120 to 123 °C.

In turn, `O=C(CN1CCCNC1=O)N1CCC(C2c3ncc(Br)cc3CCc3cc(Cl)cc(Br)c32)CC1` (single isomer, unassigned; (+)) gave a melting point of 155 to 156 °C. Compound `O=C(Nc1cc(Cl)c([N+](=O)[O-])cc1O)c1ccc(Cl)c(Cl)c1` gave a melting point of 263 to 265 °C. For the compound `CC12CCC3c4ccc(O)cc4CCC3(C=C(F)F)C1CCC2O` (configuration not stated), the melting point lay within 154 to 156 °C. The figure for `CC1(c2ccccc2)Cc2cc(OCC#N)c(Cl)c(Cl)c2C1=O` (configuration not stated) is 163 to 165 °C; for `CN1CNC(=S)N(c2ccc(Cl)cc2)C1` it is 178 to 179 °C; for `COC(=O)c1cc(F)ccc1Nc1ccnc2cc(Cl)ccc12` it is 180 °C. In turn, `CC(C)(C)OC(=O)N1CC=C(c2ccc(Br)cc2)CC1` gave a melting point of 68 to 70 °C.

On to `CCCCCCCCCCN1CCN(O)C1=O`, for which the melting point fell in the range of 68 to 69 °C. Take `Cc1cccc(C)c1C(=O)NC(C)(C)C`: the melting point fell in the range of 134 to 136 °C. In the case of `Cc1cc(-c2nc3cccnn3c2-c2ccnc(NC(=O)c3cccnc3C)c2)ccc1F` it was 258 to 259 °C; in that of `CC(C)c1cccc(C(C)C)c1NC(=S)C1c2ccccc2COc2ccc(Br)cc21` (configuration not stated), 190 to 191 °C; in that of `COc1cccc(C2(Cn3ccnc3)CC(CSc3ccc(C)cc3)ON2C)c1` (configuration not stated), 107 to 108 °C.

In turn, `N#CCC(=O)NCc1ccccn1` returned a melting point of 82 to 83 °C. In the case of `CCC1CC(=O)N(Cc2ccc(NS(C)(=O)=O)cc2)N=C1c1ccc(OC)c(OC)c1` (configuration not stated) it was 81 °C; in that of `CCOc1cc(Cl)nc(Sc2ccc(C)cc2)n1`, 94 to 97 °C. `CC(C)N(C[C@@H](O)[C@@H](C(=O)[C@H](CC(N)=O)NC(=O)c1ccccc1)C(N)c1ccccc1)NC(=O)OC(C)(C)C` (some centres not stated) registered a melting point of 182 to 185 °C. In turn, `CCC(=O)NC1Cc2cccc3ccc(OC)c(c23)C1` (configuration not stated) showed a melting point of 184 to 186 °C. In turn, `CC12CC(=O)C3C(CCC4CC5OC5CC43C)C1CCC2=O` (configuration not stated) yielded a melting point of 166 to 167 °C.

`CCC(CC)n1nc(C)c2c(O)nc(C)nc21` returned a melting point of 202 to 203 °C. With `Cc1noc(-c2ccc(F)cc2)c1-c1ccc(S(N)(=O)=O)cc1`, the melting point fell in the range of 174 to 175 °C. `Nc1cccc(OCCCN2C(=O)c3ccccc3C2=O)c1` displayed a melting point of 157 to 162 °C. In the case of `CN1CCCCC1C(=O)NN=Cc1cc(Cl)cc(Cl)c1O` (configuration not stated), the melting point fell in the range of 107 to 110 °C. The figure for `O=CNc1cccc(-c2ccnc3c(C(=O)c4cccs4)cnn23)c1` is 233 to 236 °C; for `CCCCCCCCCCC(Oc1ccc(C2=CCCCCCC2)cc1)C(=O)O` (configuration not stated) it is 45 to 48 °C. The compound `CCOC(=O)Nc1sc(C)c(C#N)c1S(=O)(=O)NC(=S)NC(C)C` gave a melting point of 169 to 171 °C.

In the case of `CCCCNC(P(=O)(O)O)P(=O)(O)O`, the melting point was in the range of 188 to 189 °C. Compound `O=P1(O)Oc2c(Cl)cc(Cl)cc2-c2ccc(Cl)cc21` had a melting point of 260 °C.

Consider `CC(=O)OCCOc1ccc(C2C(=O)Oc3c2cc(C(C)(C)C)cc3C(C)(C)C)cc1` (configuration not stated), for which the melting point is 75 to 78 °C.

In turn, `CNC(=O)N(OC)C(=O)Nc1ccccc1F` came in with a melting point of 144 to 147 °C. Compound `CCCCCCCCCCCCCCCCNc1ccc(C(=O)OCC(O)CO)cc1` (configuration not stated) registered a melting point of 112 °C.

For the compound `O=C(Cc1cc2ccccc2[nH]1)Nc1ccc(-n2nc(C(F)(F)F)cc2C(F)(F)F)cc1`, the melting point was 176 to 178 °C. With `O=Cc1cccc(-c2ccccn2)n1`, the melting point was 41 to 43 °C. The compound `COC(=O)C(Cc1ccc(OCc2ccccc2)cc1)N1CC(N2C(=O)c3ccccc3C2=O)C1=O` (configuration not stated) gave a melting point of 147 to 148 °C. With `CSc1ccc2c(c1)C=C(C(=O)O)C(C(F)(F)F)O2` (configuration not stated), the melting point fell in the range of 166 to 168 °C. For `CC(C)CCCC(C)C1CC=C2C3=C(CCC21C)C1(C)CCC(C(=O)c2ccncc2)CC1CC3` (configuration not stated), the melting point fell in the range of 129 to 131 °C. In the case of `CN(C1CCCc2ccc([N+](=O)[O-])cc21)S(C)(=O)=O` (configuration not stated) it was 138 to 140 °C; in that of `Cc1ccc(C)c(OC(=O)c2c3ccccc3nc3ccccc23)c1`, 187 to 190 °C; in that of `CCCN(C(N)=S)C(COC1CCCCO1)c1ccccc1` (configuration not stated), 82 °C. Regarding `O=C(O)C=CC=CCCCCCc1cccc2cncn12`, the melting point was 120 to 122 °C. In the case of `O=C1c2cc(F)cc(F)c2CC[C@@H]1NC(=O)C(F)(F)F` it was 142 to 145 °C.

`O=C1C(=CO)CC[C@H]2C(=O)C(=CO)CC[C@H]12` registered a melting point of 155 to 157 °C. The compound `CNc1nc(-c2ccc(SC)cc2)n(-c2ccc(C)cc2)c(=O)c1C#N` displayed a melting point of 268 to 271 °C. In turn, `CCCN(CCC)c1nc2c(c(-c3c(C)cc(C)cc3C)cn2C)c(=O)n1C` returned a melting point of 100 to 102 °C.
